Source: US6028195A, “Piperazine derivatives and process for the preparation thereof” (Samjin Pharmaceutical Co., Ltd., priority 1996, dated 2000)
≈ marks a conversion by molar mass, not a printed value. Where two headings read alike, the source gives them in different places.

Legend:
Assay type in all cases: cell-based
SKMEL-2 (human melanoma) = test: SRB assay, in vitro antitumor effect against SKMEL-2; details: Homo sapiens; SK-MEL-2, 48 hours; read-out: ED50 (the source's name)
Description: (§1) In vitro antitumor effect against human tumor cell lines.
(§2) b. 5×10^3 ~2×10^4 cells were added into each well of 96-well plate and cultured in 5% CO2 incubator, at 37° C., for 24 hours.
(§3) c. Each sample drug was dissolved in a little DMSO and diluted with the used medium to a prescribed concentration for experiments, wherein the final concentration of DMSO was controlled below 0.5%.
(§4) d. Medium of each well cultured for 24 hours as above b. was removed by aspiration. Each 200 μl of drug samples prepared in c. was added into each well and the wells were cultured for 48 hours. Tz(time zero) plates were collected at the point of time drugs were added.
(§5) e. According to the SRB assay method, cell fixing with TCA, staining with 0.4% SRB solution, washing with 1% acetic acid and elution of dye with 10 mM Tris solution were carried out on Tz plates and culture-ended plates, and then, OD values were measured at 520 nm.
(§6) a. Time zero(Tz) value was determined with measuring the SRB protein value at the point of time drugs were added.
(§7) b. Control value(C) was determined with the OD value of an well untreated with drug.
(§8) c. Drug-treated test value(T) was determined with the OD value of drug-treated well.
(§9) d. Effects of drugs were estimated with growth stimulation, net growth inhibition, net killing etc. calculated from Tz, C and T.
(§10) e. If T≥Tz, cellular response function was calculated by 100×(T-Tz)/(C-Tz), and if T<Tz, by 100×(T-Tz)/Tz.

XF 498 (human CNS) = test: SRB assay, in vitro antitumor effect against XF 498; details: Homo sapiens, XF498; XF-498, 48 hours; read-out: ED50 (the source's name)
Description: as §1, §2, §3, §4, §5, §6, §7, §8, §9, §10

SKOV-3 (human ovarian) = test: SRB assay, in vitro antitumor effect against SKOV-3; details: Homo sapiens; SK-OV-3, 48 hours; read-out: ED50 (the source's name)
Description: as §1, §2, §3, §4, §5, §6, §7, §8, §9, §10

HCT-15 (human colon) = test: SRB assay, in vitro antitumor effect against HCT-15; details: Homo sapiens
Description: as §1, §2, §3, §4, §5, §6, §7, §8, §9, §10

[1] = system: A549 (human non-small lung cell); test: SRB assay, in vitro antitumor effect against A549; details: Homo sapiens; A549, 48 hours; read-out: ED50 (the source's name)
Description: as §1, §2, §3, §4, §5, §6, §7, §8, §9, §10

[2] = HCT 15, 48 hours, read-out: ED50 (the source's name)

SMILES | IC50 (SKMEL-2 (human melanoma)) [ng/mL] | IC50 (XF 498 (human CNS)) [ng/mL] | IC50 (SKOV-3 (human ovarian)) [ng/mL] | IC50 (HCT-15 (human colon); [2]) [ng/mL] | IC50 [1] [ng/mL] | IC50 (HCT-15 (human colon); HCT-15, 48 h, read-out: ED50) [ng/mL]
COc1cc(OC)cc(N2CCN(C(=O)N(C)c3cc(C(C)OC)c(C)nc3OC)CC2)c1 (stereo not drawn) [Example 157, 1-{N-[2-Methoxy-5-(1-methoxyethyl)-6-methylpyridin-3-yl]-N-methylaminocarbonyl}-4-(3,5-dimethoxyphenyl)piperazine] | 0.043 (≈ 0.0938 nM) | 0.245 (≈ 0.534 nM) | 0.002 (≈ 0.00436 nM) | 0.211 (≈ 0.46 nM) | 0.002 (≈ 0.00436 nM) | 
C=Cc1cc(N(C)C(=O)N2CCN(c3cc(C)cc(C)c3)CC2)c(OC)nc1C [Example 159, 1-[N-(2-Methoxy-6-methyl-5-vinylpyridin-3-yl)-N-methylaminocarbonyl]-4-(3,5-dimethylphenyl)piperazine] | 70 (≈ 177 nM) | 210 (≈ 532 nM) | 100 (≈ 253 nM) | 170 (≈ 431 nM) | 50 (≈ 127 nM) | 
COc1cc(OC)cc(N2CCN(C(=O)N(C)c3cc(C)c(C)cc3OC)CC2)c1 [Example 190, 1-[N-(4,5-Dimethyl-2-methoxyphenyl)-N-methylaminocarbonyl]-4-(3,5-dimethoxyphenyl)piperazine] | 2 (≈ 4.84 nM) | 443 (≈ 1070 nM) | 8 (≈ 19.3 nM) | 17 (≈ 41.1 nM) | 4 (≈ 9.67 nM) | 
COc1cc(C)c(C)cc1N(C)C(=O)N1CCN(c2cc(C)cc(C)c2)CC1 [Example 191, 1-[N-(4,5-Dimethyl-2-methoxyphenyl)-N-methylaminocarbonyl]-4-(3,5-dimethylphenyl)piperazine] | 60 (≈ 157 nM) | 470 (≈ 1230 nM) | 280 (≈ 734 nM) | 400 (≈ 1050 nM) | 90 (≈ 236 nM) | 
COc1cc(C)c(C)cc1NC(=S)N1CCN(c2cc(C)cc(C)c2)CC1 [Example 198, 1-[(4,5-Dimethyl-2-methoxyphenyl)aminothiocarbonyl]-4-(3,5-dimethylphenyl)piperazine] | 8 (≈ 20.9 nM) | 72 (≈ 188 nM) | 68 (≈ 177 nM) | 560 (≈ 1460 nM) | 21 (≈ 54.8 nM) | 
COc1cc(C)c(C)cc1NC(=S)N1CCN(c2cc(Cl)cc(Cl)c2)CC1 [Example 201, 1-[(4,5-Dimethyl-2-methoxyphenyl)aminothiocarbonyl]-4-(3,5-dichlorophenyl)piperazine] | 49 (≈ 115 nM) | 26 (≈ 61.3 nM) | 53 (≈ 125 nM) |  | 14 (≈ 33 nM) | 71 (≈ 167 nM)

Continued, in another order:

IC50 (SKMEL-2 (human melanoma)) [ng/mL] | IC50 (XF 498 (human CNS)) [ng/mL] | IC50 (SKOV-3 (human ovarian)) [ng/mL] | IC50 (HCT-15 (human colon); [2]) [ng/mL] | IC50 [1] [ng/mL] | SMILES | IC50 (HCT-15 (human colon); HCT-15, 48 h, read-out: ED50) [ng/mL]
270 (≈ 683 nM) | 490 (≈ 1240 nM) | 560 (≈ 1420 nM) | 330 (≈ 834 nM) | 540 (≈ 1370 nM) | COc1cc(C)c(C)cc1NC(=O)N1CCN(c2c(C)c(C)cc(C)c2C)CC1 [Example 174, 1-[(4,5-Dimethyl-2-methoxyphenyl)aminocarbonyl]-4-(2,3,5,6-tetramethylphenyl)piperazine] | 
170 (≈ 455 nM) | 120 (≈ 321 nM) | 390 (≈ 1040 nM) | 90 (≈ 241 nM) | 520 (≈ 1390 nM) | COc1cc(C)c(C)cc1NC(=O)N1CCN(c2cccc(Cl)c2)CC1 [Example 177, 1-[(4,5-Dimethyl-2-methoxyphenyl)aminocarbonyl]-4-(3-chlorophenyl)piperazine] | 
720 (≈ 2030 nM) | 740 (≈ 2080 nM) | 980 (≈ 2760 nM) | 630 (≈ 1770 nM) | 1040 (≈ 2930 nM) | COc1cc(C)c(C)cc1NC(=O)N1CCN(c2cccc(O)c2)CC1 [Example 179, 1-[(4,5-Dimethyl-2-methoxyphenyl)aminocarbonyl]-4-(3-hydroxylphenyl)piperazine] | 
1170 (≈ 3170 nM) | 1410 (≈ 3820 nM) | 2270 (≈ 6140 nM) | 2090 (≈ 5660 nM) | 420 (≈ 1140 nM) | COc1cc(C)c(C)cc1NC(=O)N1CCN(c2ccccc2OC)CC1 [Example 183, 1-[(4,5-Dimethyl-2-methoxyphenyl)aminocarbonyl]-4-(2-methoxyphenyl)piperazine] | 
260 (≈ 664 nM) | 1010 (≈ 2580 nM) | 530 (≈ 1350 nM) | 440 (≈ 1120 nM) | 500 (≈ 1280 nM) | COc1cc(C)c(C)cc1NC(=S)N1CCN(c2cc(F)cc(F)c2)CC1 [Example 200, 1-[(4,5-Dimethyl-2-methoxyphenyl)aminothiocarbonyl]-4-(3,5-difluorophenyl)piperazine] | 
480 (≈ 1290 nM) | 2090 (≈ 5600 nM) | 1260 (≈ 3370 nM) | 640 (≈ 1710 nM) | 570 (≈ 1530 nM) | COc1cc(C)c(C)cc1NC(=S)N1CCN(c2ccccc2F)CC1 [Example 202, 1-[(4,5-Dimethyl-2-methoxyphenyl)amminothiocarbonyl]-4-(2-fluorophenyl)piperazine] | 
